{
  "source": "ChEMBL document CHEMBL1126998",
  "about": "“-lactam derivatives from 1-H-1,2-diazepines” (Bioorg Med Chem Lett, 1993)",
  "key": {"[1]": {"test_system": "JM1", "assay": "Tested for antiviral uM; Activity expressed as % inhibition of syncytium", "type": "functional, Homo sapiens"}, "[2]": {"test_system": "JM1", "assay": "(§1) Tested for antiviral activity of compound against HIV (Strain GB 8) in JM cells", "type": "functional, cell-based", "details": "Homo sapiens"}, "[3]": {"test_system": "JM1", "assay": "as §1", "type": "functional, cell-based", "details": "Homo sapiens", "remark": "listed apart in the source"}, "[4]": {"test_system": "JM1", "assay": "as §1", "type": "functional, Homo sapiens"}, "[5]": {"test_system": "JM1", "assay": "Tested for the cytotoxicity against JM cells at 100 uM in an MTT assay", "type": "functional, Homo sapiens"}},
  "note": "Values joined by “and” are separate entries in the source; they are usually repeats but may differ in a detail not shown here. Equal entries are not always repeated.",
  "data": [
    {"smiles": "COC(=O)NN1C(=O)[C@H](C)[C@H]1[C@@H]1NC[C@@H](O)[C@H]1O.Cl", "values": [
      {"measurement": "Inhibition", "setting": "[1]", "value": "20% and 27%"}
    ]},
    {"smiles": "O[C@H]1[C@H](O)[C@@H](O)CN2CC[C@H](O)[C@H]12", "note": "[CASTANOSPERMINE]", "values": [
      {"measurement": "IC50", "setting": "[2]", "value": 8.8, "unit": "µM"},
      {"measurement": "IC50", "setting": "[3]", "value": 7.3, "unit": "µM"},
      {"measurement": "IC90", "setting": "[4]", "value": 24.5, "unit": "µM"},
      {"measurement": "IC90", "setting": "[4]; Homo sapiens, JM1", "value": 28.2, "unit": "µM"},
      {"measurement": "Cytotoxicity", "setting": "[5]", "value": "0% and 4%"}
    ]}
  ]
}
